Laboratory results reported in patent US5980913A, “Peptides having immunomodulatory activity” (Biochem Pharma, Inc., priority 1994, dated 1999).
Where a SMILES comes first, the peptide text is derived from it. [ ]: non-standard residue; d: D form.

System: spleen cell subsets (cell surface antigens)
Assay: In vivo/ex vivo immunophenotyping in the spleen, mice treated 4 consecutive days
Set-up: species or system C57BL/6 mice
Method: C57BL.backslash.6 mice are treated with 0, 50, 100, 200, and 300 mg/kg of drug (in saline) for 4 consecutive days. Blood is taken by cardiac puncture on day 5, and the lymphocytes are isolated from spleen in the following manner:
The spleen is aseptically removed and mashed by pressing against a steel strainer with a rubber plunger. The cell suspension is separated from the clumps by letting them settle at the bottom of the tube. The cell suspension is then separated on a Lymphocyte M layer and the interface is recovered and resuspended in media.
1. Immunophenotyping (blood and spleen)
Cell immunophenotyping is performed on blood and spleen. The following cell surface antigens are analyzed:
CD4 (T helper/inducer, binds class II-restricted T cells);
CD8 (cytotoxic T cells, CTL adhesion);
MAC-1 (monocyte/macrophage);
NK (natural killer cells);
CD45 (all leukocytes, protein tyrosine phosphatase).

Structure (SMILES): NCCCC[C@@H](N)C(=O)N[C@@H](CC(N)=O)C(=O)N1CCC[C@H]1C(=O)N[C@@H](Cc1ccc(O)cc1)C(=O)O [PEPTIDE #5, H-(D-Lys)-Asn-Pro-Tyr-OH] (H-[dK]NPY-OH)
- Ly5(B) cell subset, relative percentage, MEAN (100 mg/kg, first assay): 56.75
- NK+ CD3+ cell subset, relative percentage, MEAN (100 mg/kg, first assay): 1.83
- NK+ CD3- cell subset, relative percentage, MEAN (100 mg/kg, first assay): 3.88
- NK- CD3+ cell subset, relative percentage, MEAN (100 mg/kg, first assay): 38.38
- NK- CD3- cell subset, relative percentage, MEAN (100 mg/kg, first assay): 55.95
- TCR(T) cell subset, relative percentage, MEAN (100 mg/kg, first assay): 39.83
- CD4+ CD8+ cell subset, relative percentage, MEAN (100 mg/kg, second assay): 0.53
- CD4+ CD8- cell subset, relative percentage, MEAN (100 mg/kg, second assay): 31.78
- CD4+ CD11b+ cell subset, relative percentage, MEAN (100 mg/kg, second assay): 0.33
- CD4+ CD11b- cell subset, relative percentage, MEAN (100 mg/kg, second assay): 14.65
- CD4- CD8+ cell subset, relative percentage, MEAN (100 mg/kg, second assay): 4.68
- CD4- CD8- cell subset, relative percentage, MEAN (100 mg/kg, second assay): 63.03
- CD4- CD11b+ cell subset, relative percentage, MEAN (100 mg/kg, second assay): 3.53
- CD4- CD11b- cell subset, relative percentage, MEAN (100 mg/kg, second assay): 81.53
- CD45+ CD4+ cell subset, relative percentage, MEAN (100 mg/kg, second assay): 26.40
- CD45+ CD4- cell subset, relative percentage, MEAN (100 mg/kg, second assay): 50.20
- CD45+ CD8+ cell subset, relative percentage, MEAN (100 mg/kg, second assay): 4.80
- CD45+ CD8- cell subset, relative percentage, MEAN (100 mg/kg, second assay): 73.48
- CD45- CD4+ cell subset, relative percentage, MEAN (100 mg/kg, second assay): 6.83
- CD45- CD4- cell subset, relative percentage, MEAN (100 mg/kg, second assay): 16.60
- CD45- CD8+ cell subset, relative percentage, MEAN (100 mg/kg, second assay): 0.10
- CD45- CD8- cell subset, relative percentage, MEAN (100 mg/kg, second assay): 21.68
- Ly5(B) cell subset, relative percentage, MEAN (100 mg/kg, second assay): 48.28
- NK+ CD3+ cell subset, relative percentage, MEAN (100 mg/kg, second assay): 2.25
- NK+ CD3- cell subset, relative percentage, MEAN (100 mg/kg, second assay): 4.10
- NK- CD3+ cell subset, relative percentage, MEAN (100 mg/kg, second assay): 28.65
- NK- CD3- cell subset, relative percentage, MEAN (100 mg/kg, second assay): 65.05
- TCR(T) cell subset, relative percentage, MEAN (100 mg/kg, second assay): 40.33
- CD4+ CD8+ cell subset, relative percentage, MEAN (200 mg/kg, first assay): 0.63
- CD4+ CD8- cell subset, relative percentage, MEAN (200 mg/kg, first assay): 33.73
- CD4+ CD11b+ cell subset, relative percentage, MEAN (200 mg/kg, first assay): 1.00
- CD4+ CD11b- cell subset, relative percentage, MEAN (200 mg/kg, first assay): 22.65
- CD4- CD8+ cell subset, relative percentage, MEAN (200 mg/kg, first assay): 5.68
- CD4- CD8- cell subset, relative percentage, MEAN (200 mg/kg, first assay): 60.00
- CD4- CD11b+ cell subset, relative percentage, MEAN (200 mg/kg, first assay): 3.58
- CD4- CD11b- cell subset, relative percentage, MEAN (200 mg/kg, first assay): 72.00
- CD45+ CD4+ cell subset, relative percentage, MEAN (200 mg/kg, first assay): 21.18
- CD45+ CD4- cell subset, relative percentage, MEAN (200 mg/kg, first assay): 54.03
- CD45+ CD8+ cell subset, relative percentage, MEAN (200 mg/kg, first assay): 5.28
- CD45+ CD8- cell subset, relative percentage, MEAN (200 mg/kg, first assay): 64.83
- CD45- CD4+ cell subset, relative percentage, MEAN (200 mg/kg, first assay): 14.33
- CD45- CD4- cell subset, relative percentage, MEAN (200 mg/kg, first assay): 10.48
- CD45- CD8+ cell subset, relative percentage, MEAN (200 mg/kg, first assay): 0.55
- CD45- CD8- cell subset, relative percentage, MEAN (200 mg/kg, first assay): 29.35
- Ly5(B) cell subset, relative percentage, MEAN (200 mg/kg, first assay): 59.50
- NK+ CD3+ cell subset, relative percentage, MEAN (200 mg/kg, first assay): 1.95
- NK+ CD3- cell subset, relative percentage, MEAN (200 mg/kg, first assay): 3.88
- NK- CD3+ cell subset, relative percentage, MEAN (200 mg/kg, first assay): 35.70
- NK- CD3- cell subset, relative percentage, MEAN (200 mg/kg, first assay): 58.50
- TCR(T) cell subset, relative percentage, MEAN (200 mg/kg, first assay): 37.30
- CD4+ CD8+ cell subset, relative percentage, MEAN (200 mg/kg, second assay): 0.55
- CD4+ CD8- cell subset, relative percentage, MEAN (200 mg/kg, second assay): 36.13
- CD4+ CD11b+ cell subset, relative percentage, MEAN (200 mg/kg, second assay): 0.33
- CD4+ CD11b- cell subset, relative percentage, MEAN (200 mg/kg, second assay): 13.10
- CD4- CD8+ cell subset, relative percentage, MEAN (200 mg/kg, second assay): 4.95
- CD4- CD8- cell subset, relative percentage, MEAN (200 mg/kg, second assay): 58.40
- CD4- CD11b+ cell subset, relative percentage, MEAN (200 mg/kg, second assay): 3.20
- CD4- CD11b- cell subset, relative percentage, MEAN (200 mg/kg, second assay): 78.38
- CD45+ CD4+ cell subset, relative percentage, MEAN (200 mg/kg, second assay): 29.00
- CD45+ CD4- cell subset, relative percentage, MEAN (200 mg/kg, second assay): 52.45
- CD45+ CD8+ cell subset, relative percentage, MEAN (200 mg/kg, second assay): 5.08
- CD45+ CD8- cell subset, relative percentage, MEAN (200 mg/kg, second assay): 78.23
- CD45- CD4+ cell subset, relative percentage, MEAN (200 mg/kg, second assay): 8.63
- CD45- CD4- cell subset, relative percentage, MEAN (200 mg/kg, second assay): 9.98
- CD45- CD8+ cell subset, relative percentage, MEAN (200 mg/kg, second assay): 0.13
- CD45- CD8- cell subset, relative percentage, MEAN (200 mg/kg, second assay): 16.60
- Ly5(B) cell subset, relative percentage, MEAN (200 mg/kg, second assay): 46.50
- NK+ CD3+ cell subset, relative percentage, MEAN (200 mg/kg, second assay): 2.35
- NK+ CD3- cell subset, relative percentage, MEAN (200 mg/kg, second assay): 4.35
- NK- CD3+ cell subset, relative percentage, MEAN (200 mg/kg, second assay): 32.15
- NK- CD3- cell subset, relative percentage, MEAN (200 mg/kg, second assay): 61.10
- TCR(T) cell subset, relative percentage, MEAN (200 mg/kg, second assay): 47.23
